Among the data in BindingDB's records for doi:10.1016/s0960-894x(99)00425-4 (Merck Research Laboratorie, 1999) are IC50 values, retold here.

A value given as a limit tells only on which side of the number the result lay.

The target of the assay is Beta-lactamase CcrA (Bacteroides fragilis). Nature of the assay: Inhibitory activity against CCRA (Bacteroides fragilis) metallo-beta-lactamase.
In turn, `C[C@@H](NC(=O)c1ccccc1)C(=O)SCC(=O)O` [(R)-2-(2-benzamidopropanoylthio)acetic acid] displayed an IC50 of over 1 mM.
For `CC(=O)N[C@H](C)C(=O)S[C@H](Cc1ccc(-c2ccccc2)cc1)C(=O)O` [(R)-2-((R)-2-Acetylamino-propionylsulfanyl)-3-biphenyl-4-yl-propionic acid], half-maximal inhibition (IC50) required 1 mM. This lies in the millimolar range.
With `CC(=O)N[C@H](C)C(=O)S[C@H](Cc1ccccc1)C(=O)O` [(R)-2-((R)-2-Acetylamino-propionylsulfanyl)-3-phenyl-propionic acid] the figure was over 1 mM; with `C=CCOC(=O)N[C@H](C)C(=O)S[C@H](Cc1ccc2oc3ccccc3c2c1)C(=O)O` [(R)-2-((R)-2-Allyloxycarbonylamino-propionylsulfanyl)-3-dibenzofuran-2-yl-propionic acid], over 1.5 mM; with `C[C@@H](NC(=O)c1ccccc1)C(=O)S[C@H](Cc1ccc(-c2ccccc2)cc1)C(=O)O` [(R)-2-((R)-2-Benzoylamino-propionylsulfanyl)-3-biphenyl-4-yl-propionic acid], 1 mM.
Then `C[C@@H](NC(=O)c1ccccc1)C(=O)S[C@H](Cc1ccc2oc3ccccc3c2c1)C(=O)O` [(R)-2-((R)-2-Benzoylamino-propionylsulfanyl)-3-dibenzofuran-2-yl-propionic acid], with 0.68 mM; and `CC(=O)S[C@H](Cc1ccc(-c2ccccc2)cc1)C(=O)O` [(R)-2-Acetylsulfanyl-3-biphenyl-4-yl-propionic acid], with 0.75 mM.
Then `CC(=O)S[C@H](Cc1ccc2oc3ccccc3c2c1)C(=O)O` [(R)-2-Acetylsulfanyl-3-dibenzofuran-2-yl-propionic acid], with over 0.5 mM; and `CC(=O)S[C@H](Cc1ccccc1)C(=O)O` [(R)-2-Acetylsulfanyl-3-phenyl-propionic acid], with over 1 mM; and `O=C(S[C@H](Cc1ccccc1)C(=O)O)c1ccccc1` [(R)-2-Benzoylsulfanyl-3-phenyl-propionic acid], with over 1 mM.
Molecule `CC(C)C(=O)N[C@H](C)C(=O)S[C@H](Cc1ccc(-c2ccccc2)cc1)C(=O)O` [(R)-3-Biphenyl-4-yl-2-((R)-2-isobutyrylamino-propionylsulfanyl)-propionic acid] came in with an IC50 of over 1.5 mM.
`C[C@@H](NC(=O)Cc1ccccc1)C(=O)S[C@H](Cc1ccc(-c2ccccc2)cc1)C(=O)O` [(R)-3-Biphenyl-4-yl-2-((R)-2-phenylacetylamino-propionylsulfanyl)-propionic acid] displayed an IC50 of over 1.5 mM.
With `CCC(=O)N[C@H](C)C(=O)S[C@H](Cc1ccc(-c2ccccc2)cc1)C(=O)O` [(R)-3-Biphenyl-4-yl-2-((R)-2-propionylamino-propionylsulfanyl)-propionic acid] the figure was over 1.5 mM; with `C[C@@H](NC(=O)Cc1cccc2ccccc12)C(=O)S[C@H](Cc1ccc(-c2ccccc2)cc1)C(=O)O` [(R)-3-Biphenyl-4-yl-2-[(R)-2-(2-naphthalen-1-yl-acetylamino)-propionylsulfanyl]-propionic acid], over 1.5 mM.
For `C[C@@H](NC(=O)COc1ccccc1)C(=O)S[C@H](Cc1ccc(-c2ccccc2)cc1)C(=O)O` [(R)-3-Biphenyl-4-yl-2-[(R)-2-(2-phenoxy-acetylamino)-propionylsulfanyl]-propionic acid], half-maximal inhibition (IC50) required 0.93 mM.
`O=C(O)[C@H](S)Cc1ccc(-c2ccccc2)cc1` [(R)-3-Biphenyl-4-yl-2-mercapto-propionic acid] came in with an IC50 of 0.75 mM. The IC50 values of the last two molecules are within 1.5-fold of each other.
`O=C(O)[C@H](S)Cc1ccc2oc3ccccc3c2c1` [(R)-3-Dibenzofuran-2-yl-2-mercapto-propionic acid] had an IC50 of 0.0099 mM.
Then `C[C@@H](NC(=O)CCC(=O)O)C(=O)S[C@H](Cc1ccc(-c2ccccc2)cc1)C(=O)O` [N-[(R)-1-((R)-2-Biphenyl-4-yl-1-carboxy-ethylsulfanylcarbonyl)-ethyl]-succinamic acid], with over 1.5 mM.

One may read the IC50 as the concentration at which inhibition is half-maximal. Read a low IC50 as greater potency in that assay.
